From US20180085373A1, “THERAPEUTIC AND/OR PROPHYLACTIC AGENT FOR LEWY BODY DISEASE” (KYOWA HAKKO KIRIN CO., LTD., priority 2015, published 2018)

How the values were obtained:
[1] = tested on: Slc:ICR mice; assay: Gait test (CatWalk XT), evaluation of motor function in NAC61-95 α-synucleinopathy model; assay type: in vivo; conditions: NAC61-95-treated mice
Method: (§1) By reference to articles (Science, 338, p. 949 (2012); Behavioral Brain Research, 208, p. 274 (2010)), an animal model capable of confirming a therapeutic and/or prophylactic effect on α-synucleinopathy (for example, Lewy body disease, the Lewy body disease includes cognitive impairment in Parkinson's disease, diffuse Lewy body disease, dementia with Lewy bodies, movement disorder associated with Lewy body disease and the like) was prepared as follows.
(§2) The cognitive function was evaluated using a spontaneous alternation task. The spontaneous alternation task is known as an evaluation system of cognitive function utilizing properties of an animal to willingly explore a novel environment (Neuroscience and Biobehavioral Reviews 28, p. 497 (2004)). That is, if the animal remembers the arm into which it entered previously in an exploration in a Y-maze apparatus, the behavior of spontaneous entry into a different arm was expressed by an alternation behavior rate, and used as an index of cognitive function. The motor function was evaluated by analyzing gait function under natural walk conditions using a gait function/automatic gait analysis system.
(§3) NAC61-95 (custom, Sigma) was dissolved in PBS to prepare 4 μg/μL NAC61-95 solution.
(§4) Under pentobarbital (Somnopentyl, Kyoritsuseiyaku) (50 mg/kg, i.p.) anesthesia, 5 μL of NAC61-95 solution was injected using a Hamilton syringe (10 μL) equipped with a double needle (27G, needle length 3 mm) into the right lateral cerebral ventricle of Slc:ICR mice (male, Japan SLC) over about 1 minute, and stood for 1 minute to induce cognitive impairment and/or movement disorder.
As for a sham treatment group, under pentobarbital anesthesia, 5 μL of PBS was injected using a Hamilton syringe equipped with a double needle into the right lateral cerebral ventricle of Slc:ICR mice over about 1 minute, and stood for 1 minute.
A gait function/automatic gait analysis system (CatWalk XT, ver.9.1, Noldus) was used. The system consisted of a walkway with pressure-sensitive luminescent glass and a light source, a luminescent ceiling, a highly sensitive high-speed camera and an analysis software, and the gait was analyzed by digitizing the brightness of the light emitted by the pressure-sensitive luminescent glass in response to the pressure. The gait data was automatically recorded and analyzed by the analysis software only when a mouse moved straight forward without stopping in the predetermined area on the walkway.
The mice were brought into the experiment room with light off and habituated for not less than 1 hour. A mouse was placed in the apparatus, and allowed to walk freely until 6 running data were obtained for each individual. The first three running data amenable to analyze were taken up, and their mean was calculated.
At 60 minutes before the test, istradefylline (suspended in 0.5 w/v % aqueous MC solution, and prepared to 0.5 mL per 100 g body weight of a mouse on the administration day) was orally administered at a dose of 1.0 mg/kg, or a vehicle (0.5 w/v % aqueous MC solution) free of the test compound was orally administered at 0.5 mL per 100 g body weight of a mouse on the administration day.

[2] = tested on: Slc:ICR mice; assay: Spontaneous alternation task test (Y-maze), evaluation of cognitive function in NAC61-95 α-synucleinopathy model; assay type: in vivo; conditions: NAC61-95-treated mice
Method: as §1, §2, §3
as §4, with “disorder. […]” for “disorder.”
Mice were brought into the experiment room from the previous day of test for habituation. […] Entry of all four limbs of a mouse into one arm was defined as entry into the arm, and the order of entry of the mouse into the arm was recorded. A behavior of successive entry into all three different arms was defined as spontaneous alternation behavior, and the percentage of alternation behavior was calculated by the following calculation formula. […]

[3] = 1.0 mg/kg orally 60 minutes before the test, mean±standard error

CCn1c(=O)c2c(nc(/C=C/c3ccc(OC)c(OC)c3)n2C)n(CC)c1=O [istradefylline]
gait pattern (mean) AA ([1]; AA: right forepaw→right hindpaw→left forepaw→left hindpaw, 1.0 mg/kg orally, mean±standard error): 4.3 ± 2.8
gait pattern (mean) AB ([1]; AB: right forepaw→left hindpaw→left forepaw→right hindpaw, 1.0 mg/kg orally, mean±standard error): 76.7 ± 7.1
gait pattern (mean) CA ([1]; CA: right forepaw→left forepaw→right hindpaw→left hindpaw, 1.0 mg/kg orally, mean±standard error): 10.3 ± 3.6
gait pattern (mean) CB ([1]; CB: right forepaw→left hindpaw→right hindpaw→left forepaw, 1.0 mg/kg orally, mean±standard error): 8.7 ± 4.3
change in gait pattern CB ([1]; 1.0 mg/kg orally): decreased
improvement ratio, gait pattern CB ([1]; 1.0 mg/kg orally): 100%
improvement ratio, maximum brightness ratio of the left hindpaw ([1]; 1.0 mg/kg orally): 111%
movement disorder induced by NAC61-95 treatment ([1]; 1.0 mg/kg orally): improved
maximum brightness ratio, left forepaw [1, 3]: 51.5 ± 1.8
maximum brightness ratio, left hindpaw [1, 3]: 65.3 ± 1.7
maximum brightness ratio, right forepaw [1, 3]: 52.5 ± 2.4
maximum brightness ratio, right hindpaw [1, 3]: 61.9 ± 2.4
print area, left forepaw [1, 3]: 0.35 ± 0.02
print area, left hindpaw [1, 3]: 0.38 ± 0.04
print area, right forepaw [1, 3]: 0.33 ± 0.03
print area, right hindpaw [1, 3]: 0.38 ± 0.04
change in the maximum brightness ratio of the left hindpaw ([1]; 1.0 mg/kg orally, p<0.05, Student's t-test): significant increase
gait pattern (median) AA ([1]; median, 1.0 mg/kg orally): 0.0
gait pattern (median) AB ([1]; median, 1.0 mg/kg orally): 84.6
gait pattern (median) CA ([1]; median, 1.0 mg/kg orally): 6.7
gait pattern (median) CB ([1]; median, 1.0 mg/kg orally): 0.0
cognitive impairment by NAC61-95 treatment ([2]; 1.0 mg/kg orally): improved
alternation behavior (%) [2, 3]: 66.4 ± 1.4%
alternation behavior as compared to the vehicle administration group ([2]; 1.0 mg/kg orally, p<0.05, Aspin-Welch test): significantly high
